From patent US9631001B2, “Peptide antagonists of the vasopressin-2 receptor” (COMMISSARIAT A L'ENERGIE ATOMIQUE ET AUX ENERGIES …, priority 2012, dated 2017)

Assays:
Assay in all cases: IonWorks electrophysiological assay
Assay type in all cases: cell-based
Conditions in all cases: 1 μM
[1] = target: T1, HCN4 (Homo sapiens, UniProt Q9Y3Q4)
T1 construct: expressed in transfected cells
T1 sequence (Q9Y3Q4 1-1203): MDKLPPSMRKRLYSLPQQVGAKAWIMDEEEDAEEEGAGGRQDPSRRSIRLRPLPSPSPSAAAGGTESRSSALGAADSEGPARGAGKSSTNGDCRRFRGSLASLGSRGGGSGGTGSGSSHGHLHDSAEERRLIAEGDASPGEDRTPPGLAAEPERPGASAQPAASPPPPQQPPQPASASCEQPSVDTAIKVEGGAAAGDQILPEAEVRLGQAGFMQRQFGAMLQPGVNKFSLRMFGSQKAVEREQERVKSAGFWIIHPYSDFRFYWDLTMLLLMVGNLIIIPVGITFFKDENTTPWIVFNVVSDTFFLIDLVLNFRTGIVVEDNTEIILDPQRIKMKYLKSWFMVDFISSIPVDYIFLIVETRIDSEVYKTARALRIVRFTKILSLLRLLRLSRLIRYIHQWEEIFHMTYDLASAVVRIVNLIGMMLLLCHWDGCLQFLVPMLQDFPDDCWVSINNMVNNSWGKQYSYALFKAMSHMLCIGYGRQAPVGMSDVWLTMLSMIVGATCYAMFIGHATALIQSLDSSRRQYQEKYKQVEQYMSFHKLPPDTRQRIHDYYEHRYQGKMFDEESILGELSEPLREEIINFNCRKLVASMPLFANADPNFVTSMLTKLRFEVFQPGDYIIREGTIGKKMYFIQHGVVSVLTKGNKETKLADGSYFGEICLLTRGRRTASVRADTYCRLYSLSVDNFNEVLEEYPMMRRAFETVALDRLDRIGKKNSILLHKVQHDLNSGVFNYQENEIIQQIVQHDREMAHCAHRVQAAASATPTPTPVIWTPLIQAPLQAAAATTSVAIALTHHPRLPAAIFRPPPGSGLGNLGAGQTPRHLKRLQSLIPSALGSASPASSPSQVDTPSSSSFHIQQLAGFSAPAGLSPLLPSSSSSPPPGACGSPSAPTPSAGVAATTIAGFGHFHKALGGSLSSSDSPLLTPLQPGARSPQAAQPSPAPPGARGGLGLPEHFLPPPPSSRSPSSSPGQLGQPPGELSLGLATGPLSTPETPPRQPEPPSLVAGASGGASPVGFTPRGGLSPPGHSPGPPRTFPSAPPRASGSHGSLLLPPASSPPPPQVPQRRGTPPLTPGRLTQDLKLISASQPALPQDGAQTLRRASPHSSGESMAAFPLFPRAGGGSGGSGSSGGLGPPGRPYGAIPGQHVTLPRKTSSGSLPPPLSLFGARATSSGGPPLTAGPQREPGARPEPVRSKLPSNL
Protocol: (§1) The stock solution was transferred to a master plate and into assay plates where 2 μl per well of the solution were placed. On the day of the assay, 198 μl of external solution containing the appropriate DMSO concentration was added and mixed thoroughly. This provided a 1:100 dilution. A further 1:3 dilution occurred upon addition to the cells in the IonWorks, giving a 1:300 dilution in total. On each assay plate, at least 8 wells were reserved for vehicle control (0.3% DMSO) and at least 8 wells for each positive control specific to the cell line tested. The positive controls were tested at a maximal blocking and an approximate IC50 concentration. The compounds used for positive controls: Nav1.5 100 μM and 5 mM Lidocaine, Kv4.3/KChIP2 20 μM and 500 μM Quinidine, Cav1.2 1 μM and 100 μM Nitrendipine, Kv1.5 300 μM and 10 mM 4-AP, KCNQ1/minK 10 μM and 100 μM Chromanol 293B, hERG 0.1 μM and 1 μM Cisapride, HCN4 50 μM and 3 mM Cesium, Kir2.1 20 μM and 500 μM Barium.

[2] = target: T2, Kir2.1 (Homo sapiens, UniProt P63252)
T2 construct: expressed in transfected cells
T2 sequence (P63252 1-427): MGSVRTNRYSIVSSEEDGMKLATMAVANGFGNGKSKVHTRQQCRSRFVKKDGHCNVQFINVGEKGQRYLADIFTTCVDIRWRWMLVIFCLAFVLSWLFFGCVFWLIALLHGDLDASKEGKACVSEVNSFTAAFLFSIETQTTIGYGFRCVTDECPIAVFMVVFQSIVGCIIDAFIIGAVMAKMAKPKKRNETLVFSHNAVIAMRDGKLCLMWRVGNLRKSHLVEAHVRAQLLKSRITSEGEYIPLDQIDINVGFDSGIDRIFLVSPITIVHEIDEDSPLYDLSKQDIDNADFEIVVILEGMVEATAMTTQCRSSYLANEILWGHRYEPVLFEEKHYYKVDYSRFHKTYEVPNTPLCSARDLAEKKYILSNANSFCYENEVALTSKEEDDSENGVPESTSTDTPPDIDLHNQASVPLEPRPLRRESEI
Protocol: as §1

[3] = target: T3, Kv4.3/KChIP2 (Homo sapiens, UniProt Q9UK17)
T3 construct: expressed in transfected cells
T3 sequence (Q9UK17 1-655): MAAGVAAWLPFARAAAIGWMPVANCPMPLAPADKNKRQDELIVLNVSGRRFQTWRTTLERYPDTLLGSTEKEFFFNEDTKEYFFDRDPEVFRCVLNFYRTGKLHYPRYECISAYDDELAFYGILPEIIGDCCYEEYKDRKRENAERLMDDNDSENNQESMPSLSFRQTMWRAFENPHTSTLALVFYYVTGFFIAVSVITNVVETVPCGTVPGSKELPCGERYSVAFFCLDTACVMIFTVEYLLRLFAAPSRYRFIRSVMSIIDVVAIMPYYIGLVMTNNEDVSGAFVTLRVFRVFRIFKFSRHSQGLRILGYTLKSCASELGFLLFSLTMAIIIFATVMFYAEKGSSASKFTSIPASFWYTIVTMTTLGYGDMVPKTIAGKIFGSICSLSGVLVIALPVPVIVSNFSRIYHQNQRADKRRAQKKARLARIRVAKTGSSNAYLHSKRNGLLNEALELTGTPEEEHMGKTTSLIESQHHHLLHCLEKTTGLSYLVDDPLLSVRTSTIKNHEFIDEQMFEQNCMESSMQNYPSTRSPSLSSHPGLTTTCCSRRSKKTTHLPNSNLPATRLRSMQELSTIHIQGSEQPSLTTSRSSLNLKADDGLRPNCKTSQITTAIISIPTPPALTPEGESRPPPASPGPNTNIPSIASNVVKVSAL
T3 sequence (Q9NS61 1-270 partner): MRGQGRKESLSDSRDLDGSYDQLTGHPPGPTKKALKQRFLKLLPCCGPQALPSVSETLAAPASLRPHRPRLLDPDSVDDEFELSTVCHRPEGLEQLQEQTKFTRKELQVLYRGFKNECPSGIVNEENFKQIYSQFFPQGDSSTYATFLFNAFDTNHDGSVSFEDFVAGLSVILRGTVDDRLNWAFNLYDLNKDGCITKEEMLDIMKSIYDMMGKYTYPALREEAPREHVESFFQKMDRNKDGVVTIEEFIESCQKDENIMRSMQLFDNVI
Protocol: as §1

[4] = target: T4, hERG (Homo sapiens, UniProt Q12809)
T4 construct: expressed in transfected cells
Protocol: as §1

T4 sequence (Q12809 whole entry): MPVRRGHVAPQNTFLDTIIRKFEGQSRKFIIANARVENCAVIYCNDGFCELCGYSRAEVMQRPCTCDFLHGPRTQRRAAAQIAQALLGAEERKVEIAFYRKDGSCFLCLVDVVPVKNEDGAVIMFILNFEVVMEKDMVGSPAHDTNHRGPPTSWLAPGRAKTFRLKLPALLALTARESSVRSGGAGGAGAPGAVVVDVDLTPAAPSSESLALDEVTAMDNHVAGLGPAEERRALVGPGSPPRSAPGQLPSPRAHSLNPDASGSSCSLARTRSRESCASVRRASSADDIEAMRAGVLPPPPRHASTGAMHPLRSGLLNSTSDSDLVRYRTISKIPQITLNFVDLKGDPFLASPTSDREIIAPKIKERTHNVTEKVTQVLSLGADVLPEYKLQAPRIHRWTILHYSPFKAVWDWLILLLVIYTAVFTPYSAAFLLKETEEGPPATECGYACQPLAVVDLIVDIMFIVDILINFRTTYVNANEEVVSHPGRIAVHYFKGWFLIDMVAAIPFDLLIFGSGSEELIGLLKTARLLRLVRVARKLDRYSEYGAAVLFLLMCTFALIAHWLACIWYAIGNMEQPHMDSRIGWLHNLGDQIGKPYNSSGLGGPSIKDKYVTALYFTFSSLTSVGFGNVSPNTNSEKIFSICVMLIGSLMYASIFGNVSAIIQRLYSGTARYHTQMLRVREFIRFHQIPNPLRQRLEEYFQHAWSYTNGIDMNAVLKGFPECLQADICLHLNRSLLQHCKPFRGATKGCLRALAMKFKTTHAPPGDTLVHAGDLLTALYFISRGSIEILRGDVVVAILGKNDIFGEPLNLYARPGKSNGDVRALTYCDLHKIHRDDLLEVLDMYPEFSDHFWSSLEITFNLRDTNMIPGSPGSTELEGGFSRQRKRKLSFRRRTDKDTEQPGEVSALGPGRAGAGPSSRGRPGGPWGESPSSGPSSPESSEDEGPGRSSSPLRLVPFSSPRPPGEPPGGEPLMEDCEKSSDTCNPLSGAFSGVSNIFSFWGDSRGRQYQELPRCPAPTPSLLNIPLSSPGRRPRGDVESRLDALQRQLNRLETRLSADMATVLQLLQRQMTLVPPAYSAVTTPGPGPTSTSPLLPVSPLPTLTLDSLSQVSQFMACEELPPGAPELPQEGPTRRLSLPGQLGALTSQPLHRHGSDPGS

CC[C@H](C)[C@@H]1NC(=O)[C@H]([C@@H](C)O)NC(=O)[C@H](CO)NC(=O)[C@H](Cc2ccccc2)NC(=O)[C@H](CCCNC(=N)N)NC(=O)[C@H](CC(N)=O)NC(=O)[C@H](C)NC(=O)[C@H](CC(N)=O)NC(=O)CNC(=O)[C@H](CCCCN)NC(=O)[C@@H]2CSSC[C@@H]3NC(=O)[C@@H]4CCCN4C(=O)CNC(=O)[C@@H]4CCCN4C(=O)[C@H](CCCCN)NC(=O)[C@H](C(C)C)NC(=O)[C@@H]4CCCN4C(=O)[C@H](CC(C)C)NC(=O)[C@H](CC(N)=O)NC(=O)[C@@H](NC(=O)[C@H](Cc4ccccc4)NC(=O)[C@H](CO)NC(=O)[C@@H]4CCCN4C(=O)[C@@H](N)CCCNC(=N)N)CSSC[C@@H](C(=O)N[C@H](C(=O)NCC(=O)O)C(C)C)NC(=O)[C@H]([C@@H](C)O)NC(=O)[C@H](CCCNC(=N)N)NC(=O)[C@H](CCCNC(=N)N)NC(=O)[C@H](CSSC[C@H](NC(=O)[C@H](CCCCN)NC(=O)[C@H](CC(N)=O)NC(=O)[C@H]([C@@H](C)O)NC(=O)[C@H](CCCCN)NC(=O)[C@H](CCC(N)=O)NC(=O)[C@H](CO)NC(=O)[C@H](Cc4ccc(O)cc4)NC(=O)[C@H](Cc4ccc(O)cc4)NC(=O)[C@H](Cc4ccccc4)NC(=O)[C@H](C)NC(=O)[C@H](CO)NC(=O)[C@H](Cc4ccccc4)NC(=O)[C@H](Cc4ccccc4)NC(=O)CNC(=O)[C@H](CC(N)=O)NC3=O)C(=O)N[C@@H](Cc3c[nH]cn3)C(=O)N[C@@H](CO)C(=O)N[C@@H](Cc3ccccc3)C(=O)N[C@@H]([C@@H](C)O)C(=O)N[C@@H](Cc3ccc(O)cc3)C(=O)NCC(=O)NCC(=O)N2)NC(=O)[C@H](CCCCN)NC(=O)[C@H](CCC(=O)O)NC1=O [U-Da2a] was tested, and the “inhibition of HCN4” value [1] was “did not appear to exhibit significant inhibition”, the “inhibition of Kir2.1” value [2] was “did not appear to exhibit significant inhibition” and the “inhibition of Kv4.3/KChIP2” value [3] was “did not appear to exhibit significant inhibition”. The “inhibition of hERG” value [4] was “did not appear to exhibit significant inhibition”.
